Measurements reported in PMC13485499, “Neoliensinine promotes lysosomal cell death in T cell malignancies via a novel STING-TUBA1B pathway” (Genes & Diseases, 2025).

Molecular target: T1, Stimulator of interferon genes (STING) (Homo sapiens, UniProt Q86WV6)
T1 construct: gene STING1
Test: DARTS in Jurkat and Hut102 cell lysates ([…]); weaker than NeoL
Format: cell-based

T1 sequence (Q86WV6 whole entry): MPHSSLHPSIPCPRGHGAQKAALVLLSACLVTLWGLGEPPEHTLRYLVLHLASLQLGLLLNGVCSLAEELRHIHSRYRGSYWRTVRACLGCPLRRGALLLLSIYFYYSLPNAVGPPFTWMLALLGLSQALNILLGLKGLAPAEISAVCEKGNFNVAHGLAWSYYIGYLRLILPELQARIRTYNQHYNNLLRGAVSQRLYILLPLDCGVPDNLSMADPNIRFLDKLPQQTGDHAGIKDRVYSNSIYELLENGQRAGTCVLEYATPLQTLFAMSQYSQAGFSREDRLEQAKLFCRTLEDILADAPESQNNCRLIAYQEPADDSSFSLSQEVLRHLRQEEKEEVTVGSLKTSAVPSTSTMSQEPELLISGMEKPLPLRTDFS

SMILES: COc1ccc(C[C@@H]2c3cc(Oc4cc(C[C@@H]5c6cc(O)c(OC)cc6CCN5C)ccc4O)c(OC)cc3CCN2C)cc1 [IsoL, isoliensinine]
- DARTS in Jurkat and Hut102 cell lysates (80 μmol/L); weaker than NeoL: incubation with NeoL and IsoL led to increased STING in the Jurkat and Hut102 cell lysates
